Earlier results as cited in PubChem BioAssay AID1259409 (Chemical Carcinogenesis Research Information System (CCRIS), 2018).

Test system: rodent chemically induced tumor inhibition, incidence and multiplicity
Assay: CCRIS tumor inhibitor studies

What does the source list for `CC1=C(/C=C/C(C)=C/C=C/C(C)=C/C=C/C=C(C)/C=C/C=C(C)/C=C/C2=C(C)CCCC2(C)C)C(C)(C)CCC1`?
tumour outcome (control, treated, inhibition, significance) (Carcinogen: 1,2-DIMETHYLHYDRAZINE, 540-73-8, Dose [Inhibitor]: 0, 0.005% IN DIET FOR 14 WK BEGINNING 3 D PRIOR TO CARCINOGEN TREATMENT (STUDY DURATION: 26 WK), Route [Inhibitor]: ORAL, Species: RAT, Strain/Sex: SPRAGUE-DAWLEY/MALE, Target Tissue: Type of Lesion: INTESTINE: CARCINOMA, Dose [Carcinogen]: 20 MG/KG BW 1/WK FOR 12 WK, Promoter: NONE USED): 23/28 (82%), 11/20 (55%), 33%, p<0.05; tumour outcome (control, treated, inhibition, significance) (Carcinogen: 4-(METHYLNITROSAMINO)-1-(3-PYRIDYL)-1-BUTANONE [64091-50-5], Dose [Inhibitor]: 16 MG/KG SC 2X/WK FOR 16 WK BEGINNING 1 WK PRIOR TO FIRST CARCINOGEN DOSE (STUDY DURATION: 16 WK), Route [Inhibitor]: SUBCUTANEOUS, Species: MOUSE, Strain/Sex: A/J/FEMALE, Target Tissue: Type of Lesion: LUNG: ADENOMA OR ADENOCARCINOMA, Dose [Carcinogen]: 10 UMOL ONCE 1 WK POST FIRST INHIBITOR DOSE (STUDY DURATION: 16 WK), Promoter: NONE): 100%, 100%, 0%, not significant; tumour outcome (control, treated, inhibition, significance) (Carcinogen: 4-(METHYLNITROSAMINO)-1-(3-PYRIDYL)-1-BUTANONE [64091-50-5], Dose [Inhibitor]: 32 MG/KG SC 2X/WK FOR 17 WK BEGINNING 1 WK PRIOR TO FIRST CARCINOGEN DOSE (STUDY DURATION: 17 WK), Route [Inhibitor]: SUBCUTANEOUS, Species: MOUSE, Strain/Sex: A/J/FEMALE, Target Tissue: Type of Lesion: LUNG: ADENOMA, Dose [Carcinogen]: 10 UMOL ONCE 1 WK POST FIRST INHIBITOR DOSE (STUDY DURATION: 17 WK), Promoter: NONE): 100%, 100%, 0%, not significant; tumour outcome (control, treated, inhibition, significance) (Carcinogen: 4-(METHYLNITROSAMINO)-1-(3-PYRIDYL)-1-BUTANONE [64091-50-5], Dose [Inhibitor]: 32 MG/KG SC 2X/WK FOR 53 WK BEGINNING 1 WK PRIOR TO FIRST CARCINOGEN DOSE (STUDY DURATION: 53 WK), Route [Inhibitor]: SUBCUTANEOUS, Species: MOUSE, Strain/Sex: A/J/FEMALE, Target Tissue: Type of Lesion: LUNG: ADENOMA OR ADENOCARCINOMA, Dose [Carcinogen]: 10 UMOL ONCE 1 WK POST FIRST INHIBITOR DOSE (STUDY DURATION: 53 WK), Promoter: NONE): 100%, 100%, 0%, not significant; tumour outcome (control, treated, inhibition, significance) (Carcinogen: 4-NITROQUINOLINE-1-OXIDE, 56-57-5, Dose [Inhibitor]: 0, 0.05% IN DRINKING WATER AD LIBITUM (STUDY DURATION: 30 WK), Route [Inhibitor]: ORAL, Species: MOUSE, Strain/Sex: DDY/MALE, Target Tissue: Type of Lesion: LUNG: TUMOR, Dose [Carcinogen]: 10 MG/KG BW IN OLIVE OIL/CHOLESTEROL (20:1) ONCE, Promoter: GLYCEROL, 56-81-5): 94%, 93%, 1%, not significant; tumour outcome (control, treated, inhibition, significance) (Carcinogen: 4-NITROQUINOLINE-1-OXIDE, 56-57-5, Dose [Inhibitor]: 0, 0.05% IN DRINKING WATER BEGINNING 5 WK POST CARCINOGEN TREATMENT AND CONTINUING FOR 25 WK (STUDY DURATION: 30 WK), Route [Inhibitor]: ORAL, Species: MOUSE, Strain/Sex: DDY/MALE, Target Tissue: Type of Lesion: LUNG: TUMORS, Dose [Carcinogen]: 10 MG/KG BW IN OLIVE OIL AND CHOLESTEROL (20:1) ONCE, Promoter: NONE USED): 94%, 93%, 1%, not significant; tumour outcome (control, treated, inhibition, significance) (Carcinogen: 4-NITROQUINOLINE-1-OXIDE, 56-57-5, Dose [Inhibitor]: 0, 500 PPM IN DIET FOR 10 WK BEGINNING 1 WK PRIOR TO CARCINOGEN TREATMENT (STUDY DURATION: 32 WK), Route [Inhibitor]: ORAL, Species: RAT, Strain/Sex: F344/MALE, Target Tissue: Type of Lesion: TONGUE: CARCINOMA, Dose [Carcinogen]: 20 PPM IN DRINKING WATER FOR 8 WK, Promoter: NONE USED): 13/24 (54%), 3/17 (18%), 67%, p<0.05; tumour outcome (control, treated, inhibition, significance) (Carcinogen: 4-NITROQUINOLINE-1-OXIDE, 56-57-5, Dose [Inhibitor]: 0, 500 PPM IN DIET FOR 10 WK BEGINNING 1 WK PRIOR TO CARCINOGEN TREATMENT (STUDY DURATION: 32 WK), Route [Inhibitor]: ORAL, Species: RAT, Strain/Sex: F344/MALE, Target Tissue: Type of Lesion: TONGUE: PAPILLOMA, Dose [Carcinogen]: 20 PPM IN DRINKING WATER FOR 8 WK, Promoter: NONE USED): 4/24 (17%), 2/17 (12%), 29%, not significant; tumour outcome (control, treated, inhibition, significance) (Carcinogen: 4-NITROQUINOLINE-1-OXIDE, 56-57-5, Dose [Inhibitor]: 0, 500 PPM IN DIET FOR 22 WK BEGINNING 1 WK POST CARCINOGEN TREATMENT (STUDY DURATION: 32 WK), Route [Inhibitor]: ORAL, Species: RAT, Strain/Sex: F344/MALE, Target Tissue: Type of Lesion: TONGUE: CARCINOMA, Dose [Carcinogen]: 20 PPM IN DRINKING WATER FOR 8 WK, Promoter: NONE USED): 13/24 (54%), 4/17 (24%), 56%, p<0.05; tumour outcome (control, treated, inhibition, significance) (Carcinogen: 4-NITROQUINOLINE-1-OXIDE, 56-57-5, Dose [Inhibitor]: 0, 500 PPM IN DIET FOR 22 WK BEGINNING 1 WK POST CARCINOGEN TREATMENT (STUDY DURATION: 32 WK), Route [Inhibitor]: ORAL, Species: RAT, Strain/Sex: F344/MALE, Target Tissue: Type of Lesion: TONGUE: PAPILLOMA, Dose [Carcinogen]: 20 PPM IN DRINKING WATER FOR 8 WK, Promoter: NONE USED): 4/24 (17%), 2/17 (12%), 29%, not significant; tumour outcome (control, treated, inhibition, significance) (Carcinogen: 7,12-DIMETHYLBENZ[A]ANTHRACENE, 57-97-6, Dose [Inhibitor]: 0, 0.05% IN DRINKING WATER AD LIBITUM FOR 30 WK BEGINNING 1 WK POST CARCINOGEN DOSE (STUDY DURATION: 31 WK), Route [Inhibitor]: ORAL, Species: MOUSE, Strain/Sex: ICR/FEMALE, Target Tissue: Type of Lesion: SKIN: TUMOR, Dose [Carcinogen]: 100 UG ONCE, Promoter: 12-O-TETRADECANOYLPHORBOL-13-ACETATE, 16561-29-8): 13/16 (81%), 8/16 (50%), 38%, not significant; tumour outcome (control, treated, inhibition, significance) (Carcinogen: 7,12-DIMETHYLBENZ[A]ANTHRACENE, 57-97-6, Dose [Inhibitor]: 0, 200 NMOL IN 200 µL ACETONE 2/WK BEGINNING 1 WK POST CARCINOGEN DOSE APPLIED SIMULTANEOUSLY WITH PROMOTER FOR 20 WK (S, Route [Inhibitor]: DERMAL, Species: MOUSE, Strain/Sex: ICR/?, Target Tissue: Type of Lesion: SKIN: PAPILLOMA, Dose [Carcinogen]: 100 UG ONCE, Promoter: 12-O-TETRADECANOYLPHORBOL-13-ACETATE, 16561-29-8): 69%, 31%, 55%, not calculated; tumour outcome (control, treated, inhibition, significance) (Carcinogen: 7,12-DIMETHYLBENZ[A]ANTHRACENE, 57-97-6, Dose [Inhibitor]: 0, 200 NMOL IN 200 µL ACETONE 2/WK FOR 40 WK APPLIED SIMULTANEOUSLY WITH PROMOTER BEGINNING 1 WK POST CARCINOGEN DOSE (S, Route [Inhibitor]: DERMAL, Species: MOUSE, Strain/Sex: ICR/FEMALE, Target Tissue: Type of Lesion: SKIN: TUMOR, Dose [Carcinogen]: 100 UG ONCE, Promoter: 12-O-TETRADECANOYLPHORBOL-13-ACETATE, 16561-29-8): 10/15 (67%), 8/15 (53%), 21%, not significant; tumour outcome (control, treated, inhibition, significance) (Carcinogen: 7,12-DIMETHYLBENZ[A]ANTHRACENE, 57-97-6, Dose [Inhibitor]: 0, 200 NMOL PALM CAROTENE FOR 22 WK BEGINNING 1 WK POST CARCINOGEN DOSE (STUDY DURATION: 40 WK), Route [Inhibitor]: DERMAL, Species: MOUSE, Strain/Sex: ICR/FEMALE, Target Tissue: Type of Lesion: SKIN: TUMOR, Dose [Carcinogen]: 100 UG ONCE, Promoter: GLYCOCHOLIC ACID, 475-31-0, MEZEREIN, 34807-41-5, Promoter: GLYCOCHOLIC ACID, 475-31-0, MEZEREIN, 34807-41-5): 26%, 0%, 100%, not calculated; tumour outcome (control, treated, inhibition, significance) (Carcinogen: 7,12-DIMETHYLBENZ[A]ANTHRACENE, 57-97-6, Dose [Inhibitor]: 0, 250 MG SUSPENDED IN LIQUID PARAFFIN APPLIED TO EACH CHEEK POUCH 2/WK BEGINNING 15 D POST LAST CARCINOGEN DOSE AND CON, Route [Inhibitor]: DERMAL, Species: HAMSTER, Strain/Sex: SYRIAN/MALE, Target Tissue: Type of Lesion: CHEEK POUCH: TUMOR, Dose [Carcinogen]: 0.125 MG (0.25% LIQUID PARAFFIN SOLUTION) APPLIED TO EACH CHEEK POUCH FOR 1 MO, Promoter: NONE USED): 10/15 (67%), 0/20 (0%), 100%, not calculated; tumour outcome (control, treated, inhibition, significance) (Carcinogen: 7,12-DIMETHYLBENZ[A]ANTHRACENE, 57-97-6, Dose [Inhibitor]: 0, 250 MG SUSPENDED IN LIQUID PARAFFIN APPLIED TO EACH CHEEK POUCH 2/WK BEGINNING 15 D POST LAST CARCINOGEN DOSE AND CON, Route [Inhibitor]: DERMAL, Species: HAMSTER, Strain/Sex: SYRIAN/MALE, Target Tissue: Type of Lesion: STOMACH: TUMOR, Dose [Carcinogen]: 0.125 MG (0.25% LIQUID PARAFFIN IN SOLUTION) APPLIED TO EACH CHEEK POUCH 2/WK FOR 1 MO, Promoter: NONE USED): 15/15 (100%), 0/20 (0%), 100%, not calculated; tumour outcome (control, treated, inhibition, significance) (Carcinogen: 7,12-DIMETHYLBENZ[A]ANTHRACENE, 57-97-6, Dose [Inhibitor]: 0, 290 IU/KG IN 100 µL PEANUT OIL 5 D/WK BEGINNING 1 WK POST CARCINOGEN DOSE AND CONTINUING FOR DURATION OF STUDY (STUDY, Route [Inhibitor]: GAVAGE, Species: MOUSE, Strain/Sex: HRA/SKH/FEMALE, Target Tissue: Type of Lesion: SKIN: CARCINOMA, Dose [Carcinogen]: 10 NMOL IN 50 µL ACETONE ONCE): 7/25 (28%), 7/38 (18%), 36%, not calculated; outcome (Carcinogen: 7,12-DIMETHYLBENZ[A]ANTHRACENE, 57-97-6, Dose [Inhibitor]: 0, 290 IU/KG IN 100 µL PEANUT OIL 5 D/WK BEGINNING 1 WK POST CARCINOGEN DOSE AND CONTINUING FOR DURATION OF STUDY (STUDY, Route [Inhibitor]: GAVAGE, Species: MOUSE, Strain/Sex: HRA/SKH/FEMALE, Target Tissue: Type of Lesion: SKIN: PAPILLOMA, Dose [Carcinogen]: 10 NMOL IN 50 µL ACETONE ONCE): 97%, 77%, 21%, not calculated at 20 wk; 68%, 50%, 27%, not calculated at 40 wk
